{"source": "patent US12466843B2", "about": "“Gadolinium-based compound, method for producing same, and MRI contrast agent containing same” (KYUNGPOOK NATIONAL UNIVERSITY INDUSTRY-ACADEMIC COOPERATION …, priority 2019, dated 2025)", "molecular_target": "T1, VGLUT1 (Rattus norvegicus, UniProt Q62634)", "T1 construct": "only the hippocampus and the cerebral cortex were selected and isolated; endogenous in cells; host or cells: primary neurons from hippocampus and cerebral cortex of Sprague Dawley rat fetuses", "T1 sequence (Q62634 1-560)": "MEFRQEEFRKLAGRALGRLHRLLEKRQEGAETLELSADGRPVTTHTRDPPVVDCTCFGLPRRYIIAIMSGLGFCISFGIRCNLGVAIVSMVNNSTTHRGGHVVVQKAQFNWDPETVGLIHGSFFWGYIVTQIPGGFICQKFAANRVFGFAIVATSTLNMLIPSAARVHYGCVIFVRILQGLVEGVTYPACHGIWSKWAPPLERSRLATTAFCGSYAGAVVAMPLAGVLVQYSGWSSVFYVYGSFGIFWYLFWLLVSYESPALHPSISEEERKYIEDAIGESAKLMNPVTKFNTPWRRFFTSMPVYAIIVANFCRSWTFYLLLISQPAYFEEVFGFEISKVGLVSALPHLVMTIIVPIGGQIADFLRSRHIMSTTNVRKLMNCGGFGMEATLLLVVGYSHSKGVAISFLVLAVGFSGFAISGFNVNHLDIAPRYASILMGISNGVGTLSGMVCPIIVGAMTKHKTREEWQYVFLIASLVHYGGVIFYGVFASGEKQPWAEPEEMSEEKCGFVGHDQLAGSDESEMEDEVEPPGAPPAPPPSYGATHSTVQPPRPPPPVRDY", "experiment": "In vitro binding test via primary culture: MR phantom study", "type": "cell-based, Sprague Dawley rats", "settings": "primary rat brain neurons, 0, 50, 100, 200, 400 μM, 24 hours, washed, 3T MRI; FIG. 6A/6B", "procedure": "2) In Vitro Binding Test Via Primary Culture 2)-(1). Experimental Method {circumflex over (1)} Primary Culture of Rat Brain Neurons\nSprague Dawley rats at […] of pregnancy were purchased from Daehan Biolink. After stabilizing the pregnant […], respiratory anesthesia was performed using isoflurane, and the fetus was separated from the mother. The fetal brain was separated therefrom, the membrane was removed therefrom, and only the hippocampus and the cerebral cortex were selected and isolated, cut into small pieces, put in HBSS buffer and washed 4 times (centrifugation 1000 rpm, 3 minutes). After the last washing, HBSS was removed, and HBSS buffer containing trypsin was added thereto (cell volume: trypsin HBSS=1:1) and reaction occurred in a constant temperature water bath (37° C.) for 5 minutes. HBSS buffer containing 10% FBS was added thereto ((cell volume+trypsin HBSS): 10% FBS HBSS=1:1) to stop the enzyme reaction of trypsin, and the resulting product passed through 4 layers of lens paper and thus was formed into single cells. The cells were washed 4 times via centrifugation with HBSS buffer, and only the cells separated into the single cells were obtained. […]\nThe obtained cells were suspended in neurobasal media containing 1×N2 supplement, 1×B27, 4 mM L-glutamine, and 1% antibiotics at 7×10^6 cells per E-tube. […] MRI intensity was analyzed using ImageJ program."}
{"smiles": "O=C([O-])CN1CCN(CC(=O)[O-])CCN([C@H](CO)[C@H](O)CO)CCN(CC(=O)[O-])CC1.[Gd+3]", "note": "(racemic) [Gadovist]", "values": [{"measurement": "phantom signal intensity (brightness) based on Gd concentration", "value": "little difference in brightness based on the Gd concentration"}]}
